According to US11680047B2, “Enhanced erythropoiesis and iron metabolism” (FibroGen, Inc., priority 2003, dated 2023):

How the values were obtained:
VCAM-1 [1] = test: TNF-α induced VCAM-1 expression in HUVEC; format: cell-based, human; settings: TNF-α 1 ng/ml, 1 day
Excerpt: Endothelial cell adhesiveness for lymphocytes occurs, in part, by endothelial cell expression of vascular cell adhesion molecule (VCAM)-1. VCAM-1 expression in endothelial cells is induced by various inflammatory cytokines, such as TNF-α. To investigate the effect of HIF prolyl hydroxylase inhibition on TNF-α induced VCAM-1 expression, HUVEC (human umbilical vein endothelial cells) were stimulated with TNF-α in the absence or presence of various concentrations of compound B or compound C for 1 day. VCAM expression was then measured.
(§1) Endothelial E-selectin belongs to the selectin family of cellular adhesion molecules mediating the initial attachment of leukocytes to vascular endothelial cells in inflammatory events. IL-1β, TNF-α, and lipopolysaccharides each induce the expression of E-selectin. (See, e.g., Bevilacqua et al. (1987) Proc Natl Acad Sci USA 84:9238-9242 and Bevilacqua and van Furth (1993) J Leukoc Biol 54:363-378.) To investigate the effect of HIF prolyl hydroxylase inhibition on TNF-α induced E-selectin expression, HUVECs were stimulated with 1 ng/ml TNF-α in the absence or presence of various concentrations of compound B or compound C for 1 day. E-selectin and VCAM expression were then measured.

VCAM-1 [2] = test: IL-1β induced VCAM-1 expression in HUVEC; format: cell-based, human; settings: IL-1β 1 ng/ml, 1 day
Procedure: To investigate the effect of HIF prolyl hydroxylase inhibition on IL-1β induced VCAM-1 expression, HUVEC (human umbilical vein endothelial cells) were stimulated with IL-1β in the absence or presence of various concentrations of compound B or compound C for 1 day. VCAM expression was then measured.

E-selectin [3] = test: TNF-α induced E-selectin expression in HUVEC; format: cell-based, human; settings: 1 ng/ml TNF-α, various concentrations, 1 day
Excerpt: as §1

E-selectin [4] = test: IL-1β induced E-selectin expression in HUVEC; format: cell-based, human; settings: 1 ng/ml IL-1β, 1 day
Procedure: To investigate the effect of HIF prolyl hydroxylase inhibition on IL-1β induced E-selectin expression, HUVECs were stimulated with 1 ng/ml IL-1β in the absence or presence of various concentrations of compound B or compound C for 1 day. E-selectin expression was then measured.

E-selectin [5] = test: Cell surface E-selectin (cell-based ELISA) in HUVEC pretreated with compound, then cytokines; set-up: species or system human; settings: HUVEC pretreated 24 hours
Procedure: HUVEC were treated with vehicle control or various concentrations of compound B or compound C for 24 hours. Cells were washed and then stimulated with either 1 ng/ml TNF-α, 1 ng/ml IL-1β, or a combination of 1 ng/ml each of TNF-α, IL-1β, and IFN-γ for 4 hours. Cell surface expression of E-selectin was measured by cell-based ELISA.

NRAMP2 = NRAMP2 mRNA in small intestine of mice after IV administration (microarray); format: in vivo, mouse; settings: 60 mg/kg IV, 4 hours
Procedure: In another experiment, mRNA was isolated from small intestine harvested 4 hours following IV administration of 60 mg/kg compound A, compound B, and compound C to mice. Probes were prepared from each of two animals from 5 treatment groups, and hybridized to Affymetrix mouse MOE430Aplus2 microarrays (one animal per array). Statistical comparisons of data obtained from arrays from treated versus non-treated animals was performed. […] Expression levels are shown as fold-induction over control, untreated animals for each expressed gene.

Ceruloplasmin (CP) = test: Microarray gene expression in Hep3B cells: ceruloplasmin; format: cell-based, human; settings: 2 μM, 6 hr
Procedure: Hep3B cells (ATCC No. HB-8064) were grown in DMEM containing 8% fetal bovine serum. Hep3B cells were seeded into 6-well culture dishes at ˜500,000 cells per well. After 8 hours, the media was changed to DMEM containing 0.5% fetal bovine serum and the cells were incubated for an additional 16 hours. Compound B or compound D was added to the cells (2 μM final concentration) and the cells were incubated for various times. Control cells (no compound treatment, addition of DMSO alone) were harvested at 0, 6 and 48 hours. Harvested cells were assessed for cell viability (GUAVA), or added to RNA extraction buffer (RNeasy, Qiagen) and stored at −20° C. for subsequent RNA purification. Replicate microarrays were generated using RNA isolated from replicate experiments conducted on different days. Total RNA was isolated from cells using the RNeasy kit (Qiagen).
RNA was precipitated in 0.3 M sodium acetate (pH 5.2), 50 ng/ml glycogen, and 2.5 volumes of ethanol for one hour at −20° C. Samples were centrifuged and pellets were washed with cold 80% ethanol, dried, and resuspend in water. Double stranded cDNA was synthesized using a T7-(dT)24 first strand primer (Affymetrix, Inc., Santa Clara Calif.) and the SUPERSCRIPT CHOICE system (Invitrogen) according to the manufacturer's instructions. The final cDNA was extracted with an equal volume of 25:24:1 phenol:chloroform:isoamyl alcohol using a PHASE LOCK GEL insert (Brinkman, Inc., Westbury N.Y.). The aqueous phase was collected and cDNA was precipitated using 0.5 volumes of 7.5 M ammonium acetate and 2.5 volumes of ethanol. Alternatively, cDNA was purified using the GENECHIP sample cleanup module (Affymetrix) according to the manufacturer's instructions.
Biotin-labeled cRNA was synthesized from the cDNA in an in vitro […] (IVT) reaction using a BIOARRAY HighYield RNA transcript labeling kit (Enzo Diagnostics, Inc., Farmingdale N.Y.) according to the manufacturer's instructions. Final labeled product was purified and fragmented using the GENECHIP sample cleanup module (Affymetrix) according to the manufacturer's instructions.
Hybridization cocktail was prepared by bringing […] probe to […] in 1× hybridization buffer (100 mM MES, 1 M [Na^+], 20 mM EDTA, 0.01% Tween 20), 100 µg/ml herring sperm DNA, 500 µg/ml acetylated BSA, 0.03 nM contol oligo B2 (Affymetrix), and 1×GENECHIP eukaryotic hybridization control (Affymetrix). The cocktail was sequentially incubated at 99° C. for 5 minutes and 45° C. for 5 minutes, and then centrifuged for 5 minutes. The Human Genome U133A array (Affymetrix) was brought to room temperature and then prehybridized with 1× hybridization buffer at 45° C. for 10 minutes with rotation. The buffer was then replaced with […] hybridization cocktail and the array was hybridized for 16 hours at 45° C. at 60 rpm with counter balance. Following hybridization, arrays were washed once with 6×SSPE, 0.1% Tween 20, and then washed and stained using R-phycoerythrin-conjugated streptavidin (Molecular Probes, Eugene Oreg.), goat anti-streptavidin antibody (Vector Laboratories, Burlingame Calif.), and a GENECHIP Fluidics Station 400 instrument (Affymetrix) according to the manufacturer's micro_1v1 protocol (Affymetrix). Arrays were analyzed using a GENEARRAY scanner (Affymetrix) and Microarray Suite software (Affymetrix).
The Human Genome U133A array (Affymetrix) represents all sequences in the Human Unigene database build 133 (National Center for Biotechnology Information, Bethesda Md.), including approximately 14,500 well-characterized human genes.
RNA quality was monitored by capillary electrophoresis (Agilent Bioanalyzer). Hybridization cocktails were prepared as described (Affymetrix), and hybridized to Affymetrix human U133A arrays containing 22,283 probe sets. Array performance was analyzed with Affymetrix MicroArray Suite (MAS) software and individual probe sets were assigned “present”, “marginal, and “absent” calls according to software defaults. […]

[6] = tested on: erythropoietin-resistant anemia; settings: Salvarani et al. (1996); Goch et al. (1995); cited from earlier work
EPO production = test: Secreted EPO (ELISA) in Hep3B cells treated with IL-6; format: cell-based; settings: 10 ng/ml IL-6, absence of compound
Procedure: Secreted EPO levels were determined using a commercially available ELISA kit (R&D Systems, catalog no. DEP00). […] As shown in FIGS. 27A and 27B, Hep3B cells treated with IL-6 increased EPO expression slightly above that in non-treated cells. Specifically, EPO levels in control cells was approximately 20 mIU/ml, while that in cells treated with 10 ng/ml IL-6 was approximately 50 mIU/ml.

Molecule: O=C(O)CNC(=O)c1ncc2cc(Sc3ccccc3)ccc2c1O [C, [(4-Hydroxy-7-phenylsulfanyl-isoquinoline-3-carbonyl)-amino]-acetic acid]
- inhibition of TNF-α induced VCAM-1 expression (VCAM-1 [1]): does-dependent inhibition of TNF-α induced VCAM-1 expression
- inhibition of IL-1β induced VCAM-1 expression (VCAM-1 [2]): does-dependent inhibition of IL-1β induced VCAM-1 expression
- inhibition of TNF-α induced E-selectin expression (E-selectin [3]): dose-dependent inhibition of TNF-α induced VCAM and E-selectin expression
- inhibition of IL-1β induced E-selectin expression (E-selectin [4]): dose-dependent inhibition of IL-1β induced E-selectin expression
- induction of cell surface E-selectin expression (E-selectin [5]; then 1 ng/ml TNF-α or 1 ng/ml IL-1β for 4 hours): inhibited the induction of cell surface E-selectin expression
- cell surface E-selectin expression (E-selectin [5]; then TNF-α, IL-1β and IFN-γ, 1 ng/ml each, 4 hours): decreased E-selectin expression
- NRAMP2 mRNA expression in small intestine (NRAMP2): increasing expression of NRAMP2 in intestine

Molecule: COc1ccc(CCN(CCC(=O)NO)S(=O)(=O)c2ccc(NC(=O)N(Cc3ccccc3)Cc3ccccc3)cc2)cc1 [Compound D, 3-{[4-(3,3-Dibenzyl-ureido)-benzenesulfonyl]-[2-(4-methoxy-phenyl)-ethyl]-amino}-N-hydroxy-propionamide]
- Ceruloplasmin (CP) fold-increase in mRNA levels above control, first data point (Ceruloplasmin (CP)): 2.06 fold
- Ceruloplasmin (CP) fold-increase in mRNA levels above control, second data point (Ceruloplasmin (CP)): 2.387 fold

Molecule: CC(=O)N(O)CCCCCNC(=O)CCC(=O)N(O)CCCCCNC(=O)CCC(=O)N(O)CCCCCN [desferrioxamine]
- efficacy in erythropoietin-resistant anemia, e.g., anemia of chronic disease [6]: some efficacy

Molecule: IL-6: cytokine added to Hep3B cells, alone or with compound A or compound B [reference compound]
- EPO levels (EPO production): approximately 50 mIU/ml
